# Assay results published in the supplement of paper PMC10733146.
# Columns and labels:
# Assay in all cases: viability relative to DMSO control (fraction); higher = less drug effect (more viable cells)
# Conditions in all cases: 48 h
# [1] = compound: OCc1ccc(-c2ccc(-c3ccc(CO)s3)o2)s1
# Summary of the method: (§1)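 Using 384-well plates with compounds already plated at five concentrations, one well per concentration, 4 × 10^4 primary mononuclear tumour cells were added per well. Cells were Ficoll-isolated from blood or bone marrow or came from processed lymph node, fresh or cryopreserved. They were kept for 48 h at 37 °C and 5% CO2 in RPMI-1640 supplemented with penicillin/streptomycin, L-glutamine and human serum, and viability was read as CellTiter-Glo luminescence relative to the median of 16 inner DMSO wells.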
# [2] = compound: CC(C)(C)c1cc(NC(=O)Nc2ccc(-c3cn4c(n3)sc3cc(OCCN5CCOCC5)ccc34)cc2)no1 [Quizartinib]
# Summary of the method: as §1
# [3] = compound: CC(C)C[C@H](NC(=O)[C@H](CCc1ccccc1)NC(=O)CN1CCOCC1)C(=O)N[C@@H](Cc1ccccc1)C(=O)N[C@@H](CC(C)C)C(=O)[C@@]1(C)CO1 [Carfilzomib]
# Summary of the method: as §1
# [4] = compound: Cc1cc(Nc2cc(N3CCN(C)CC3)nc(Sc3ccc(NC(=O)C4CC4)cc3)n2)n[nH]1 [Tozasertib]
# Summary of the method: as §1
# [5] = compound: NC(=O)Nc1cc(-c2cccc(F)c2)sc1C(=O)N[C@H]1CCCNC1 [AZD7762]
# Summary of the method: as §1
# [6] = compound: Cc1[nH]c2ccccc2c1CCNCc1ccc(/C=C/C(=O)NO)cc1 [Panobinostat]
# Summary of the method: as §1
# [7] = compound: CC(=O)[C@]1(O)Cc2c(O)c3c(c(O)c2[C@@H](O[C@H]2C[C@H](N)[C@H](O)[C@H](C)O2)C1)C(=O)c1ccccc1C3=O [Idarubicin]
# Summary of the method: as §1
# [8] = compound: CC#CC(=O)N1CC[C@@H](n2c(=O)n(-c3ccc(Oc4ccccc4)cc3)c3c(N)ncnc32)C1 [ONO-4059]
# Summary of the method: as §1
# [9] = compound: CC(C)N(C[C@H]1O[C@@H](n2cnc3c(N)ncnc32)[C@H](O)[C@@H]1O)[C@H]1C[C@@H](CCc2nc3cc(C(C)(C)C)ccc3[nH]2)C1 [EPZ-5676]
# Summary of the method: as §1
# [10] = compound: CC(C)(C)OC(=O)Nc1ccc(-c2cc(C(=O)NCCCCCCC(=O)NO)no2)cc1
# Summary of the method: as §1
# [11] = compound: CCCS(=O)(=O)Nc1ccc(F)c(C(=O)c2c[nH]c3ncc(-c4ccc(Cl)cc4)cc23)c1F [Vemurafenib]
# Summary of the method: as §1
# [12] = compound: COc1c(Cl)cc2c([nH]c3cnccc32)c1NC(=O)c1cccnc1C [MLN-120B]
# Summary of the method: as §1
# [13] = compound: Nc1nc(Cl)nc2c1ncn2[C@H]1C[C@H](O)[C@@H](CO)O1 [Cladribine]
# Summary of the method: as §1
# [14] = compound: CC[C@@H]1C(=O)N(C)c2cnc(Nc3ccc(C(=O)N[C@H]4CC[C@H](N5CCN(CC6CC6)CC5)CC4)cc3OC)nc2N1C(C)C [BI6727]
# Summary of the method: as §1
# [15] = compound: CCOc1cc(C(=O)N2CCC(N3CCN(C)CC3)CC2)ccc1Nc1ncc2c(n1)N(C1CCCC1)c1ccccc1C(=O)N2C [ERK5-IN-1]
# Summary of the method: as §1
test system,measurement,setting,value
primary FL patient cells (S087),viability,[1]; 0.024 µM,0.941
same,viability,[1]; 0.12 µM,0.913
same,viability,[1]; 0.6 µM,0.927
same,viability,[1]; 3 µM,0.888
same,viability,[1]; 15 µM,0.487
same,viability,[2]; 0.016 µM,1.08
same,viability,[2]; 0.08 µM,1.04
same,viability,[2]; 0.4 µM,1.02
same,viability,[2]; 2 µM,1.03
same,viability,[2]; 10 µM,0.986
same,viability,[3]; 0.00016 µM,0.849
same,viability,[3]; 0.0008 µM,0.515
same,viability,[3]; 0.004 µM,0.272
same,viability,[3]; 0.02 µM,0.22
same,viability,[3]; 0.1 µM,0.188
same,viability,[4]; 0.024 µM,0.941
same,viability,[4]; 0.12 µM,0.913
same,viability,[4]; 0.6 µM,0.937
same,viability,[4]; 3 µM,0.842
same,viability,[4]; 15 µM,0.797
same,viability,[5]; 0.024 µM,0.719
same,viability,[5]; 0.12 µM,0.741
same,viability,[5]; 0.6 µM,0.768
same,viability,[5]; 3 µM,0.812
same,viability,[5]; 15 µM,0.772
same,viability,[6]; 0.00064 µM,0.965
same,viability,[6]; 0.0032 µM,0.928
same,viability,[6]; 0.016 µM,0.748
same,viability,[6]; 0.08 µM,0.602
same,viability,[6]; 0.4 µM,0.555
same,viability,[7]; 0.024 µM,0.829
same,viability,[7]; 0.12 µM,0.71
same,viability,[7]; 0.6 µM,0.489
same,viability,[7]; 3 µM,0.591
same,viability,[7]; 15 µM,0.0467
same,viability,[8]; 0.0016 µM,0.985
same,viability,[8]; 0.008 µM,0.965
same,viability,[8]; 0.04 µM,1.02
same,viability,[8]; 0.2 µM,0.92
same,viability,[8]; 1 µM,0.983
same,viability,[9]; 0.0032 µM,0.916
same,viability,[9]; 0.016 µM,0.987
same,viability,[9]; 0.08 µM,0.92
same,viability,[9]; 0.4 µM,0.919
same,viability,[9]; 2 µM,0.975
same,viability,[10]; 0.024 µM,0.983
same,viability,[10]; 0.12 µM,0.894
same,viability,[10]; 0.6 µM,0.838
same,viability,[10]; 3 µM,0.723
same,viability,[10]; 15 µM,0.466
same,viability,[11]; 0.024 µM,1.01
same,viability,[11]; 0.12 µM,1.03
same,viability,[11]; 0.6 µM,0.974
same,viability,[11]; 3 µM,0.999
same,viability,[11]; 15 µM,1.04
same,viability,[12]; 0.024 µM,0.95
same,viability,[12]; 0.12 µM,0.954
same,viability,[12]; 0.6 µM,0.96
same,viability,[12]; 3 µM,0.947
same,viability,[12]; 15 µM,0.781
same,viability,[13]; 0.024 µM,0.85
same,viability,[13]; 0.12 µM,0.663
same,viability,[13]; 0.6 µM,0.628
same,viability,[13]; 3 µM,0.592
same,viability,[13]; 15 µM,0.557
same,viability,[14]; 0.024 µM,0.983
same,viability,[14]; 0.12 µM,0.974
same,viability,[14]; 0.6 µM,0.917
same,viability,[14]; 3 µM,0.778
same,viability,[14]; 15 µM,0.121
same,viability,[15]; 0.024 µM,0.946
same,viability,[15]; 0.12 µM,0.956
same,viability,[15]; 0.6 µM,0.881
same,viability,[15]; 3 µM,0.769
same,viability,[15]; 15 µM,0.368
primary AML patient cells (S081),viability,[1]; 0.024 µM,0.961
same,viability,[1]; 0.12 µM,0.725
same,viability,[1]; 0.6 µM,0.169
same,viability,[1]; 3 µM,0.114
same,viability,[1]; 15 µM,0.0391
same,viability,[2]; 0.016 µM,1.04
same,viability,[2]; 0.08 µM,1.12
same,viability,[2]; 0.4 µM,1.04
same,viability,[2]; 2 µM,1.1
same,viability,[2]; 10 µM,0.92
same,viability,[3]; 0.00016 µM,0.961
same,viability,[3]; 0.0008 µM,0.976
same,viability,[3]; 0.004 µM,0.551
same,viability,[3]; 0.02 µM,0.0452
same,viability,[3]; 0.1 µM,0.0252
same,viability,[4]; 0.024 µM,0.975
same,viability,[4]; 0.12 µM,0.908
same,viability,[4]; 0.6 µM,0.912
same,viability,[4]; 3 µM,0.957
same,viability,[4]; 15 µM,0.586
same,viability,[5]; 0.024 µM,0.821
same,viability,[5]; 0.12 µM,0.451
same,viability,[5]; 0.6 µM,0.448
same,viability,[5]; 3 µM,0.225
same,viability,[5]; 15 µM,0.0731
same,viability,[6]; 0.00064 µM,1.02
same,viability,[6]; 0.0032 µM,0.956
same,viability,[6]; 0.016 µM,0.349
same,viability,[6]; 0.08 µM,0.044
same,viability,[6]; 0.4 µM,0.0384
same,viability,[7]; 0.024 µM,1.16
same,viability,[7]; 0.12 µM,1.3
same,viability,[7]; 0.6 µM,0.382
same,viability,[7]; 3 µM,0.0142
same,viability,[7]; 15 µM,0.0148
same,viability,[8]; 0.0016 µM,0.978
same,viability,[8]; 0.008 µM,1.02
same,viability,[8]; 0.04 µM,0.98
same,viability,[8]; 0.2 µM,1.04
same,viability,[8]; 1 µM,1.07
same,viability,[9]; 0.0032 µM,0.901
same,viability,[9]; 0.016 µM,1.08
same,viability,[9]; 0.08 µM,0.971
same,viability,[9]; 0.4 µM,1.02
same,viability,[9]; 2 µM,1.09
same,viability,[10]; 0.024 µM,0.919
same,viability,[10]; 0.12 µM,0.864
same,viability,[10]; 0.6 µM,0.754
same,viability,[10]; 3 µM,0.194
same,viability,[10]; 15 µM,0.0314
same,viability,[11]; 0.024 µM,0.895
same,viability,[11]; 0.12 µM,0.962
same,viability,[11]; 0.6 µM,0.91
same,viability,[11]; 3 µM,1.01
same,viability,[11]; 15 µM,0.98
same,viability,[12]; 0.024 µM,0.883
same,viability,[12]; 0.12 µM,0.927
same,viability,[12]; 0.6 µM,0.904
same,viability,[12]; 3 µM,0.881
same,viability,[12]; 15 µM,0.828
same,viability,[13]; 0.024 µM,0.954
same,viability,[13]; 0.12 µM,0.904
same,viability,[13]; 0.6 µM,0.602
same,viability,[13]; 3 µM,0.374
same,viability,[13]; 15 µM,0.172
same,viability,[14]; 0.024 µM,0.938
same,viability,[14]; 0.12 µM,0.884
same,viability,[14]; 0.6 µM,0.747
same,viability,[14]; 3 µM,0.347
same,viability,[14]; 15 µM,0.0708
same,viability,[15]; 0.024 µM,0.876
same,viability,[15]; 0.12 µM,0.866
same,viability,[15]; 0.6 µM,0.765
same,viability,[15]; 3 µM,0.551
same,viability,[15]; 15 µM,0.182
